Measured values published in ChEMBL document CHEMBL1147743, “The first potent inhibitors for human glutaminyl cyclase: synthesis and structure-activity relationship” (J Med Chem, 2006).
pKi: −log10 of the molar value.

Target: Glutaminyl-peptide cyclotransferase (Homo sapiens, UniProt Q16769)
Experiment: Inhibitory activity against human glutaminyl cyclase

Chain of Glutaminyl-peptide cyclotransferase (Q16769 whole entry): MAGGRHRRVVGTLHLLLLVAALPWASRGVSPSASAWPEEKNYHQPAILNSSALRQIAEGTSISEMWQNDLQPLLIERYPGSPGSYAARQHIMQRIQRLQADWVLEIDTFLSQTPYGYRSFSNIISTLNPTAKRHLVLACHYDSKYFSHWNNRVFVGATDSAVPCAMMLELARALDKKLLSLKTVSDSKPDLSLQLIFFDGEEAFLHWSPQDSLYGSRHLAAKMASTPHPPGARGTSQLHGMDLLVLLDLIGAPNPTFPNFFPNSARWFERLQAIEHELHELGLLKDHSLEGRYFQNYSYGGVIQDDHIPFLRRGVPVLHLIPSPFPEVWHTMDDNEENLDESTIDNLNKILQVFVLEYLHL

| pKi | SMILES |
| --- | --- |
| 5.33 | S=C(NCCCn1ccnc1)NC1CCCCC1 |
| 6.15 | O=C1CNC(=S)N1CCCn1ccnc1 |
